Test [1] addresses T1, C. muris cytosolic leucyl-tRNA synthetase (CmLeuRS) editing domain (Cryptosporidium muris, UniProt B6AA20).
T1 construct: gene CMU_041310; connective polypeptide domain (CP1) residues 254 to 541
Put plainly: ITC; crystal structure ([…] Å). It counts as binding. In general terms: In ITC the heat of successive injections is recorded.

The target in test [2] is T1, C. muris cytosolic leucyl-tRNA synthetase (CmLeuRS) editing domain. Put plainly: ITC; crystal structure ([…] Å). The class given is binding. The source holds these as a separate data set.

Read-outs that look alike come from different tables or passages of the source.

T1 sequence (B6AA20 entry or part of it): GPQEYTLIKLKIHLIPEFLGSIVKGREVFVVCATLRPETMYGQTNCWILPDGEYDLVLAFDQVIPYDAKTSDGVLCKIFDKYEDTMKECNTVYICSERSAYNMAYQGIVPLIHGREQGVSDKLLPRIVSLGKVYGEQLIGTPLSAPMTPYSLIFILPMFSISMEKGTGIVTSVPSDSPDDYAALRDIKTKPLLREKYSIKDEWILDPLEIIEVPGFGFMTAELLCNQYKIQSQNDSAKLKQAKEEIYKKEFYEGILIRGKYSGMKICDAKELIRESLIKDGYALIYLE

The term Kd denotes a measure of binding affinity in units of concentration. In turn, `CC[C@H](C)[C@H](N)C(=O)N[C@@H]1[C@H](O)[C@@H](CO)O[C@H]1n1cnc2c(N)ncnc21` [Ile2AA, 2-(L-isoleucyl)amino-2-deoxyadenosine] registered a Kd in test [1] of 215 µM.

The compound `CCC[C@H](N)C(=O)N[C@@H]1[C@H](O)[C@@H](CO)O[C@H]1n1cnc2c(N)ncnc21` [Nva2AA, 2-(L-norvalyl)amino-2-deoxyadenosine] had a Kd in test [2] of 213 µM.

(Values after publication PMC5038320, “Cryptosporidium and Toxoplasma Parasites Are Inhibited by a Benzoxaborole Targeting Leucyl-tRNA Synthetase” (Antimicrobial Agents and Chemotherapy, 2016).)
